Assay: distribution coefficient (log P), measured between n-octanol and water
Assay type: physicochemical
Settings: experimental value, read-out: logP Observed
Procedure: On the other hand, the measured value of the distribution coefficient is calculated by the following equation using a concentration of a medicinal ingredient dissolved in each of two phases of water and n-octanol, which is obtained by a conventional quantitative method such as absorption spectrophotometry, gas chromatography or liquid chromatography:
Log P=Log [(concentration of the medicinal ingredient in n-octanol phase)/(concentration of the medicinal ingredient in water phase)

Row | SMILES | logP
1 | O=C1O[C@H]([C@@H](O)CO)C(O)=C1O [ascorbic acid] | -2.15
2 | CCOc1ccccc1C(N)=O [ethenzamide] | 1.39
